Experimental data as given in patent US8207226B1, “Use of FAAH antagonists for treating dry eye and ocular pain” (Alcon Research, Ltd., priority 2008, dated 2012).

Tested on: cornea (capsaicin-induced blinking)
Assay type: in vivo, Sprague-Dawley rats
Conditions: for reduction of blink rate elicited by capsaicin: topical ocular dosing in 10% cyclodextrin vehicle 5 min before capsaicin (5 μL of 0.0005%), seven week old Sprague-Dawley rats, blinks counted for one minute
From the text: A capsaicin blink test was used to determine the pharmacological effect of two fatty acid amides, oleamide and anandamide. The test measured the pain response of the cornea by the number of times the animal blinked after the application of capsaicin.
Lyophilized anandamide was resuspended in an aqueous 10% cyclodextrin solution that was buffered with an aliquot of 10× phosphate buffered saline (PBS) (Laine et. al., 2001, Pharmaceutical Research. 18:494-499). The test article, either cyclodextrin vehicle or fatty acid amide (FAA), was dosed to both eyes of seven week old Sprague-Dawley rats (n=8, per group) five minutes prior to the application of capsaicin. Blinks were counted after the application of anandamide. Animals were dosed with 5 μL of vehicle in OS eye. After a 5-second period, blinks were counted for one minute. Capsaicin (5 μL of 0.0005%) was dosed in the OD eye. Blinks were counted in the same manner as the OS eye.

Structure (SMILES)	solubility in the 10% cyclodextrin vehicle (rat, in vivo)	reduction of blink rate elicited by capsaicin [%]	blinking after test article alone (before capsaicin application) (rat, in vivo)
CCCCCCCC/C=C\CCCCCCCC(N)=O [Oleamide, oleamide]	only partial solubility	20	
CCCCC/C=C\C/C=C\C/C=C\C/C=C\CCCC(=O)NCCO [anandamide]		50	rapid blinking for approximately one minute, followed by normal rates of blinking
